Here are results for 35 molecules from US6969711B2, “Cyclic diamine compounds and medicine containing the same” (Kowa Company, Ltd., priority 1997, dated 2005).

On to `Cc1cc(SC(C)C)c(NC(=O)CN2CCN(CCSc3nc4ncccc4o3)CC2)c(SC(C)C)n1.Cl.Cl`, for which the melting point was in the range of 170 to 172 °C.
Next, `CCSc1cc(C)nc(SCC)c1NC(=O)CN1CCN(CCSc2nc3ccccc3o2)CC1` [Example 34, 2-[4-[2-(benzoxazol-2-ylthio)ethyl]piperazin-1-yl]-N-[2,4-bis(ethylthio)-6-methyl-3-pyridyl]acetamide]: 108 to 109 °C; `CCOCCOc1cc(C(C)C)c(NC(=O)CN2CCN(CCSc3nc4ccccc4o3)CC2)c(C(C)C)c1` [Example 78, 2-[4-[2-(benzoxazol-2-ylthio)ethyl]piperazin-1-yl]-N-[2,6-diisopropyl-4-(2-ethoxyethyl)oxyphenyl)acetamide]: 92 to 95 °C.
On to `COc1ccc(C(C)C)c(NC(=O)CN2CCN(CCCSc3nc4ccccc4o3)CC2)c1C(C)C` [Example 70, 2-[4-[3-(benzoxazol-2-ylthio)propyl]piperazin-1-yl]-N-(2,6-diisopropyl-3-methoxyphenyl)acetamide], for which the melting point lay in the range of 105 to 107 °C.
Take `CC(C)c1cc(C(C)C)c(NC(=O)CN2CCN(CCSc3nc4ccccc4o3)CC2)c(C(C)C)c1` [Example 48, 2-[4-[2-(benzoxazol-2-ylthio)ethyl]piperazin-1-yl]-N-(2,4,6-triisopropylphenyl)acetamide]: the melting point lay within 160 to 163 °C.
Next, `CCOC(=O)COc1cc(C(C)C)c(NC(=O)CN2CCN(CCSc3nc4ccccc4o3)CC2)c(C(C)C)c1` [Example 77, 2-[4-[2-(benzoxazol-2-ylthio)ethyl]piperazin-1-yl]-N-[2,6-diisopropyl-4-ethoxycarbonylmethyloxyphenyl)acetamide]: 118 to 120 °C.
For the molecule `CC(C)c1cc(C(C)C)c(NC(=O)CN2CCN(CCSc3nc4ccccc4[nH]3)CC2)c(C(C)C)c1` [Example 49, 2-[4-[2-(benzimidazol-2-ylthio)ethyl]piperazin-1-yl]-N-(2,4,6-triisopropylphenyl)acetamide], the melting point is 217 to 218 °C.
Then `COc1cc(C(C)C)c(NC(=O)CN2CCN(CCSc3nc4ccccc4o3)CC2)c(C(C)C)c1` [Example 75, 2-[4-[2-(benzoxazol-2-ylthio)ethyl]piperazin-1-yl]-N-(2,6-diisopropyl-4-methoxyphenyl)acetamide], with 115 to 117 °C.
`CCOCCOc1ccc(C(C)C)c(NC(=O)CN2CCN(CCSc3nc4ccccc4o3)CC2)c1C(C)C` [Example 65, 2-[4-[2-(benzoxazol-2-ylthio)ethyl]piperazin-1-yl]-N-[2,6-diisopropyl-3-(2-ethoxyethyloxy)phenyl)acetamide] registered a melting point of 100 to 103 °C.
The molecule `COC(=O)c1cccc2nc(SCCCN3CCCN(CC(=O)Nc4c(C(C)C)cccc4C(C)C)CC3)oc12` [Example 14, 2-[4-[3-(7-methoxycarbonylbenzoxazol-2-ylthio)propyl]homopiperazin-1-yl]-N-(2,6-diisopropylphenyl)acetamide] yielded a melting point of 83 to 85 °C.
`Cc1cc(SC(C)C)c(NC(=O)CN2CCN(CCSc3nc4ccccc4s3)CC2)c(SC(C)C)n1.Cl.Cl`: the melting point was in the range of 139 to 142 °C.
In turn, `CC(C)c1cccc(C(C)C)c1NC(=O)CN1CCN(CCSc2nc3cccc([N+](=O)[O-])c3o2)CC1` [Example 104, 2-[4-[2-(7-nitrobenzoxazol-2-ylthio)ethyl]-piperazin-1-yl]-N-(2,6-diisopropylphenyl)acetamide] yielded a melting point of 153 to 155 °C.
Then `CC(C)c1cc(C(C)C)c(NC(=O)CN2CCN(CCCSc3nc4ccccc4s3)CC2)c(C(C)C)c1` [Example 55, 2-[4-[3-(benzothiazol-2-ylthio)propyl]piperazin-1-yl]-N-(2,4,6-triisopropylphenyl)acetamide], with 107 to 108 °C; and `Cc1ccc(C(C)C)c2oc(SCCN3CCN(CC(=O)Nc4c(C(C)C)cccc4C(C)C)CC3)nc12` [Example 122, 2-[4-[2-(7-isopropyl-4-methylbenzoxazol-2-ylthio)ethyl]piperazin-1-yl]-N-(2,6-diisopropylphenyl)acetamide], with 133 to 134 °C.
Turning to `CC(C)c1ccc([N+](=O)[O-])c(C(C)C)c1NC(=O)CN1CCN(CCSc2nc3cccc(C(F)(F)F)c3o2)CC1` [Example 87, 2-[4-[2-(7-trifluoromethylbenzoxazol-2-ylthio)ethyl]piperazin-1-yl]-N-(2,6-diisopropyl-3-nitrophenyl)acetamide], the melting point fell in the range of 115 to 117 °C.
In turn, `CCCCCCCN(CCN1CCN(CCCSc2nc3ccccc3o2)CC1)C(=O)Nc1c(SC)cc(C)nc1SC.Cl.Cl` showed a melting point of 208 to 210 °C.
Take `COc1ccc(C(C)C)c(NC(=O)CN2CCN(CCCSc3nc4c(C)c(Cl)cc(C(C)C)c4o3)CC2)c1C(C)C` [Example 110, 2-[4-[3-(5-chloro-7-isopropyl-4-methylbenzoxazol-2-ylthio)propyl]piperazin-1-yl]-N-(2,6-diisopropyl-3-methoxyphenyl)acetamide]: the melting point lay within 126 to 127 °C.
With `CC(C)c1cccc(C(C)C)c1NC(=O)CN1CCN(CCSc2nc3ccccc3[nH]2)CC1` [Example 3, 2-[4-[2-(benzimidazol-2-ylthio)ethyl]-piperazin-1-yl]-N-(2,6-diisopropylphenyl)acetamide], the melting point was 207 °C (dec.).
Next, `CC(C)c1cccc(C(C)C)c1NC(=O)NCCN1CCN(CCSc2nc3ccccc3[nH]2)CC1` [Example 80, N-[2-[4-[2-(benzimidazol-2-ylthio)ethyl]piperazin-1-yl]ethyl]-N′-(2,6-diisopropylphenyl)urea]: 120 to 122 °C; `CC(C)c1cccc(C(C)C)c1NC(=O)CN1CCN(CCSc2nc3ccccc3s2)CC1` [Example 2, 2-[4-[2-(benzothiazol-2-ylthio)ethyl]-piperazin-1-yl]-N-(2,6-diisopropylphenyl)acetamide]: 170 to 171 °C.
In turn, `CCOCCOc1cc(C(C)C)c(NC(=O)CN2CCN(CCCSc3nc4ccccc4o3)CC2)c(C(C)C)c1` [Example 120, 2-[4-[3-(benzoxazol-2-ylthio)propyl]piperazin-1-yl]-N-[2,6-diisopropyl-4-(2-ethoxyethyloxy)phenyl]acetamide] showed a melting point of 115 to 117 °C.
Consider `Cc1c(Cl)cc(C(C)C)c2oc(SCCN3CCN(CC(=O)Nc4c(C(C)C)cccc4C(C)C)CC3)nc12` [Example 97, 2-[4-[2-(5-chloro-7-isopropyl-4-methylbenzoxazol-2-ylthio)ethyl]piperazin-1-yl]-N-(2,6-diisopropylphenyl)acetamide], for which the melting point lay in the range of 162 to 163 °C.
As to `COc1cc(C)nc(OC)c1NC(=O)CN1CCN(CCSc2nc3ccccc3o2)CC1` [Example 45, 2-[4-[2-(benzoxazol-2-ylthio)ethyl]piperazin-1-yl]-N-[2,4-dimethoxy-6-methyl-3-pyridyl)acetamide], the melting point fell in the range of 113 to 115 °C.
Regarding `CC(C)c1ccc(O)c(C(C)C)c1NC(=O)CN1CCN(CCSc2nc3cccc(C(F)(F)F)c3o2)CC1` [Example 130, 2-[4-[2-(7-trifluoromethylbenzoxazol-2-ylthio)ethyl]piperazin-1-yl]-N-(2,6-diisopropyl-3-hydroxyphenyl)acetamide], the melting point lay within 82 to 84 °C.
`CC(C)c1cc(O[C@@H]2O[C@H](CO)[C@@H](O)[C@H](O)[C@H]2O)cc(C(C)C)c1NC(=O)CN1CCN(CCSc2nc3cccc(C(F)(F)F)c3o2)CC1` [Example 134, 2-[4-[2-(7-trifluoromethylbenzoxazol-2-ylthio)ethyl]piperazin-1-yl]-N-[2,6-diisopropyl-4-(β-D-glucopyranosyl)oxyphenyl]acetamide] came in with a melting point of 130 to 133 °C.
`CCCCCCCN(CCN1CCN(CCSc2nc3ccccc3o2)CC1)C(=O)Nc1c(SCC)cc(C)nc1SCC.Cl.Cl` registered a melting point of 124 to 127 °C.
For the molecule `CC(C)c1cc(O)cc(C(C)C)c1NC(=O)CN1CCN(CCSc2nc3ccccc3o2)CC1` [Example 72, 2-[4-[2-(benzoxazol-2-ylthio)ethyl]piperazin-1-yl]-N-(2,6-diisopropyl-4-hydroxyphenyl)acetamide], the melting point was in the range of 162 to 164 °C.
Next, `CCOP(=O)(OCC)Oc1cc(C(C)C)c(NC(=O)CN2CCN(CCSc3nc4ccccc4o3)CC2)c(C(C)C)c1`: 108 to 109 °C; `CC(C)c1cccc(C(C)C)c1NC(=O)NCCN1CCN(CCSc2nc3ncccc3o2)CC1` [Example 83, N-[2-[4-[2-(oxazolo[4,5-b]pyridine-2-ylthio)ethyl]piperazin-1-yl]ethyl]-N′-(2,6-diisopropylphenyl)urea]: 175 to 176 °C; `CC(C)c1cc(CO)cc(C(C)C)c1NC(=O)CN1CCN(CCSc2nc3cccc(C(F)(F)F)c3o2)CC1` [Example 140, 2-[4-[2-(7-trifluoromethylbenzoxazol-2-ylthio)ethyl]piperazin-1-yl]-N-[2,6-diisopropyl-4-hydroxymethylphenyl]acetamide]: 146 to 148 °C.
Then `COC(=O)c1cccc2nc(SCCN3CCN(CC(=O)Nc4c(C(C)C)cccc4C(C)C)CC3)oc12` [Example 4, 2-[4-[2-(7-methoxycarbonylbenzoxazol-2-ylthio)ethyl]-piperazin-1-yl]-N-(2,6diisopropylphenyl)acetamide], with 159 to 161 °C.
As for `CSc1nc(C)ccc1NC(=O)CN1CCN(CCSc2nc3ccccc3o2)CC1.Cl.Cl`, the melting point is 200 to 203 °C.
On to `COC(=O)c1cccc2nc(SCCN3CCN(CC(=O)Nc4c(SC(C)C)cc(C)nc4SC(C)C)CC3)oc12` [Example 39, N-[2,4-bis(isopropylthio)-6-methyl-3-pyridyl]-2-[4-[2-(7-methoxycarbonylbenzoxazol-2-ylthio)ethyl]piperazin-1-yl]acetamide], for which the melting point lay in the range of 60 to 63 °C.
In the case of `CC(C)c1cccc(C(C)C)c1NC(=O)CN1CCN(CCCSc2nc3ncccc3o2)CC1` [Example 12, 2-[4-[3-(oxazolo[4,5-b]pyridine-2-ylthio)propyl]piperazin-1-yl]-N-(2,6-diisopropylphenyl)acetamide], the melting point is 125 to 127 °C.
The molecule `COc1ccc(C(C)C)c(NC(=O)CN2CCN(CCSc3nc4ccccc4o3)CC2)c1C(C)C.Cl.Cl` had a melting point of 218 to 222 °C.
